30 compounds from patent US11725012B2, “Imidazo[1,5-a]pyrazine derivatives as PI3K δ inhibitors” (priority 2016, dated 2023) can be followed below.

What all share (assay type): biochemical
Test [1] has as its target recombinant PI3K (p110δ/p85α) (Homo sapiens, UniProt O00329). Description: PI3Kδ ADP-Glo kinase assay. The settings on record: read-out: PI3Kδ Enzyme activity IC50. As for the experimental part:
Compounds disclosed herein were tested for inhibition of PI3Kδ kinase activity using commercial ADP-Glo™ Kinase Assay (Promega Corporation) and following the manufacture's instruction. Briefly, recombinant PI3K (p110δ/p85α) enzyme, lipid kinase substrate and a serial dilution of compounds disclosed herein were incubated for 0.5 hr at room temperature. ATP was added to initiate the kinase reaction. After incubation for 1 hr at room temperature, ADP-Glo™ reagent was added to terminate the kinase reaction and deplete the remaining ATP. After incubation for 1 hr at room temperature, kinase detection reagent was added to simultaneously convert ADP to ATP and allow the newly synthesized ATP to be measured using a luciferase/luciferin reaction. After incubation for 0.5 hr at room temperature, the luminescence generated was measured on a PHERAstar FS plate reader (BMG LABTECH), The residual enzyme activity in presence of increasing concentrations of compounds was calculated based on the luminescence. The IC50 for each compound was derived from fitting the data to the four-parameter logistic equation by Graphpad Prism software.

The target in a further test is PI3K (p110γ) (Homo sapiens, UniProt P48736). Description: PI3Kγ ADP-Glo kinase assay. The settings on record: for IC50: read-out: PI3Kγ Enzyme activity IC50; for inhibition at 0.5 µM: read-out: PI3Kγ max inhibition (%) at 0.5 μM.
Sequence of PI3K (p110γ) (P48736 whole entry): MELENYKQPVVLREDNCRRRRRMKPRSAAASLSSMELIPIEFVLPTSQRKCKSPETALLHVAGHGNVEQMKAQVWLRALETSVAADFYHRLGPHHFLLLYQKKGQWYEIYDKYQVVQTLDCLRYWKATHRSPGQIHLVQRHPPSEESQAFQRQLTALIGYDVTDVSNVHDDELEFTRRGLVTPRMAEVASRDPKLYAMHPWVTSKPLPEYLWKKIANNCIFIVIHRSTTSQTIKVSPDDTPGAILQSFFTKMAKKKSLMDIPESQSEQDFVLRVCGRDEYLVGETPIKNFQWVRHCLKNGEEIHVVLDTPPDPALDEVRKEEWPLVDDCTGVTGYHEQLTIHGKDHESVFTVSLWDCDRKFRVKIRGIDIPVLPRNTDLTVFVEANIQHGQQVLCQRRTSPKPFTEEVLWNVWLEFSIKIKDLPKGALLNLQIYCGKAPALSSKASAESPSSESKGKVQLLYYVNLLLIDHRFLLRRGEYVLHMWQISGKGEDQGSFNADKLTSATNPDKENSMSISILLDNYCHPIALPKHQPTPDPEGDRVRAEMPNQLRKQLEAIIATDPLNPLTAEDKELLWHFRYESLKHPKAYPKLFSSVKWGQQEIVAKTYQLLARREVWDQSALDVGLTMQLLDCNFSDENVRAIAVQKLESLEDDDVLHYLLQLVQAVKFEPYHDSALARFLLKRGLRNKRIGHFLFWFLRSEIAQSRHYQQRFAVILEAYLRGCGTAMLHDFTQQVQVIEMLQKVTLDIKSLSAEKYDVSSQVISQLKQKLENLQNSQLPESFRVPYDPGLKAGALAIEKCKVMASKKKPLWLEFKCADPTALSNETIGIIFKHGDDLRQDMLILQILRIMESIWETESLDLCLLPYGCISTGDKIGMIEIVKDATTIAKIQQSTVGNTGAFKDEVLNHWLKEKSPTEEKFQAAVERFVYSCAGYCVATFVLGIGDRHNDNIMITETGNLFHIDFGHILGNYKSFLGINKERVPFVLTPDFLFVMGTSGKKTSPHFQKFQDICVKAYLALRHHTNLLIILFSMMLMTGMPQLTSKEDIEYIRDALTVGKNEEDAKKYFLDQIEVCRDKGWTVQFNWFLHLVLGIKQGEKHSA
Test [2] addresses recombinant PI3K (p110α/p85α) (Homo sapiens, UniProt P42336). Description: PI3Kα ADP-Glo kinase assay. The conditions noted are these: for IC50: read-out: PI3Kα Enzyme activity IC50; for inhibition at 0.5 µM: read-out: PI3Kα max inhibition (%) at 0.5 μM.
Another test deals with PI3K (p110β/p85α) (Homo sapiens, UniProt P42338). Kind of test: PI3Kβ ADP-Glo kinase assay. The settings on record: read-out: PI3Kβ max inhibition (%) at 0.5 μM.
Sequence of PI3K (p110β/p85α) (P42338 whole entry): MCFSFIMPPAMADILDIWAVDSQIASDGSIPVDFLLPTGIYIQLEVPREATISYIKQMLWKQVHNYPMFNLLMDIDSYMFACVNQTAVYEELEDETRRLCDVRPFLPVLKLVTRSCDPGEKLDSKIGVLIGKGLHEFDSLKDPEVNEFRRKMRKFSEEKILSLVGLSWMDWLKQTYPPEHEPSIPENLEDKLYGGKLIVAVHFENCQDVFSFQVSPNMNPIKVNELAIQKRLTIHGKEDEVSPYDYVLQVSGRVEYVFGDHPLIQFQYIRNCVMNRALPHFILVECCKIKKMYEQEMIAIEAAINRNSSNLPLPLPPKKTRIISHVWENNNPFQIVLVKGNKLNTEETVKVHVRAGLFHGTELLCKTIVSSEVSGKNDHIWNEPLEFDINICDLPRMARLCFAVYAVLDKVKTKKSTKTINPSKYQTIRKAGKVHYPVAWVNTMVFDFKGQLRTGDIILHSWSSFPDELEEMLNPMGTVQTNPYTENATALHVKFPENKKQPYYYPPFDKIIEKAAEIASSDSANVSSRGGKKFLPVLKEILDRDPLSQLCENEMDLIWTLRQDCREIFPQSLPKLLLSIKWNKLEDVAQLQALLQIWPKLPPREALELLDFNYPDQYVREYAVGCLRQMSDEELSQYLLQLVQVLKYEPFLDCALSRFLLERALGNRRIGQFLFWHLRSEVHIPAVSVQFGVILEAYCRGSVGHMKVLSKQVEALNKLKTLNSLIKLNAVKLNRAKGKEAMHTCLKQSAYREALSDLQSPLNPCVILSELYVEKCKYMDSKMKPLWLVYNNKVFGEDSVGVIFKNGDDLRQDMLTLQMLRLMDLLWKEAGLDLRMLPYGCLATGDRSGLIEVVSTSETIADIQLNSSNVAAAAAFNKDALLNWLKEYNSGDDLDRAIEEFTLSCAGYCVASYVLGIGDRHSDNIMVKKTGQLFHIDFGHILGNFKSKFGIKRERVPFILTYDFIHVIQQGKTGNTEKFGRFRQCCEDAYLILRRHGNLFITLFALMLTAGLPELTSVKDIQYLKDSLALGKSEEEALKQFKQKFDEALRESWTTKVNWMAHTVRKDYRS
Sequence of PI3K (p110β/p85α) (P27986 whole entry partner): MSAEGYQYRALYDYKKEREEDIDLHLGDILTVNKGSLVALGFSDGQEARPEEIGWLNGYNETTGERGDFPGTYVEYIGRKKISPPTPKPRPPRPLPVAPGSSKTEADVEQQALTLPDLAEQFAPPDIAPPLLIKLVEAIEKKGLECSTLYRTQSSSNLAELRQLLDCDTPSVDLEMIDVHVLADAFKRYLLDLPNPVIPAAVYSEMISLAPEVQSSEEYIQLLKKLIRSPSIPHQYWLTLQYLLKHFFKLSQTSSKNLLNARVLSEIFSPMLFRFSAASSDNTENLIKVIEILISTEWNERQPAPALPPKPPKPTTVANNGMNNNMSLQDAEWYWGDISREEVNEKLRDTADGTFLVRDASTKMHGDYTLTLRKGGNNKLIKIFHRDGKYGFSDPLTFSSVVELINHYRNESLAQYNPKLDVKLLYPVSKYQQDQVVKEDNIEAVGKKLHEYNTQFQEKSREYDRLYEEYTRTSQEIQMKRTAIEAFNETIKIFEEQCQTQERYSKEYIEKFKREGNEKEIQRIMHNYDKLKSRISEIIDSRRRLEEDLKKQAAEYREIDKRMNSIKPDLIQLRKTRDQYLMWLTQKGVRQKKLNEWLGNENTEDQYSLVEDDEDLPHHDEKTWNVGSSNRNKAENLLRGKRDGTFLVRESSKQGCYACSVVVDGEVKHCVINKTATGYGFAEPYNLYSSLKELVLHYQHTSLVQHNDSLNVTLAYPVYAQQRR

Sequence of recombinant PI3K (p110δ/p85α) (O00329 whole entry): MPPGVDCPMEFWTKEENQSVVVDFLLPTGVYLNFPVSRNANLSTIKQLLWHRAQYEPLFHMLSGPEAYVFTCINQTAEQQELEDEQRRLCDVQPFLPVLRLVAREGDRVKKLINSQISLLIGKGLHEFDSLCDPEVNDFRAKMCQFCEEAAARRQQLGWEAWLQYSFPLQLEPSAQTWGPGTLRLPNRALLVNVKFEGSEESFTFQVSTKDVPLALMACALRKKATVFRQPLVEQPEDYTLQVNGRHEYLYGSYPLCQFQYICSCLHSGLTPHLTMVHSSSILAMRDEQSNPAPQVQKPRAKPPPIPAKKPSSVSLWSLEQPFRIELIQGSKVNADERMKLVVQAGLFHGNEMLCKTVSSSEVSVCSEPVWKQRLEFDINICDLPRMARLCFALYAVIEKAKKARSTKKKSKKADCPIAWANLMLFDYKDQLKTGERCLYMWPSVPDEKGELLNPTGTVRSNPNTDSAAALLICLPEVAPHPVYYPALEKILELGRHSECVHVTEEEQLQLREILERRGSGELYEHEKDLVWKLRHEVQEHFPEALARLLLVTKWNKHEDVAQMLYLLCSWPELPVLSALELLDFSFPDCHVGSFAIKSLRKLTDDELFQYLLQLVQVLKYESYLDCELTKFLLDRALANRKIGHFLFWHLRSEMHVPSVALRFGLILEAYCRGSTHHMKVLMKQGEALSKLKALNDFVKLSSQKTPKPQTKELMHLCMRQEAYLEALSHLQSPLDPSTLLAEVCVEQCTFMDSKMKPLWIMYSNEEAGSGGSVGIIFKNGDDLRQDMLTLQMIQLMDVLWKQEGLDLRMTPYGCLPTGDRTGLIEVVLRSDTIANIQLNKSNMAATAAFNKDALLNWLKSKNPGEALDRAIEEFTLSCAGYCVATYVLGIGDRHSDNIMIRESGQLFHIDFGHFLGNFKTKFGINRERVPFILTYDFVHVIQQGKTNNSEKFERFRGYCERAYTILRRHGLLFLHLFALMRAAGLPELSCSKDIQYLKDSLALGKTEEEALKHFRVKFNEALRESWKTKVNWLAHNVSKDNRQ
Sequence of recombinant PI3K (p110δ/p85α) (P27986 whole entry partner): as the sequence (P27986 whole entry partner) above
Sequence of recombinant PI3K (p110α/p85α) (P42336 whole entry): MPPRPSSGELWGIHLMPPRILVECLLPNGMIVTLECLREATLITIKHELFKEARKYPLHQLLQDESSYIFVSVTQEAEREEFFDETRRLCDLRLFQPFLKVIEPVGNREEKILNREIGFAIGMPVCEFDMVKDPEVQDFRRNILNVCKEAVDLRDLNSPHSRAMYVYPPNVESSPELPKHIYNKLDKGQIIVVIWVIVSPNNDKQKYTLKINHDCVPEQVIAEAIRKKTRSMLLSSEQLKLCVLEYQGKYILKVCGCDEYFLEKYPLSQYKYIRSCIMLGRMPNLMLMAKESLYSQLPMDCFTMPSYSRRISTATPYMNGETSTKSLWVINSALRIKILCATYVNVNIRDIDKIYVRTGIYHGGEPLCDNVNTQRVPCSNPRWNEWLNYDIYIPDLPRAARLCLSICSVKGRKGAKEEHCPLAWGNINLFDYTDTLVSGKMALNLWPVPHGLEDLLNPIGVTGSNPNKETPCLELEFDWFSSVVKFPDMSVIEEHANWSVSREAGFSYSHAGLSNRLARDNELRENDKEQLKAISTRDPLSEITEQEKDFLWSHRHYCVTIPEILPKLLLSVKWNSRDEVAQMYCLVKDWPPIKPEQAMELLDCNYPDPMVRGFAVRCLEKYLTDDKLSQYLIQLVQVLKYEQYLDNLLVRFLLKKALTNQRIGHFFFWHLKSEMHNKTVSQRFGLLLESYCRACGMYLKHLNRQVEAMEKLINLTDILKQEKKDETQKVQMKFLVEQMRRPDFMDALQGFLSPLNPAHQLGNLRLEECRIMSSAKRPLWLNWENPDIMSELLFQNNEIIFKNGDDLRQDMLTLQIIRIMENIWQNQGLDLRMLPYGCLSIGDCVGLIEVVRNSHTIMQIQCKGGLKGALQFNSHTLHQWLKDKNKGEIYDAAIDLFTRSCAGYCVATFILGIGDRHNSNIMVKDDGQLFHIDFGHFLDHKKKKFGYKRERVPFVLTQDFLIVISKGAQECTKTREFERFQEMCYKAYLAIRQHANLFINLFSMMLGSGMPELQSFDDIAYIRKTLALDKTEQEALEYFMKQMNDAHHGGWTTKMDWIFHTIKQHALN
Sequence of recombinant PI3K (p110α/p85α) (P27986 whole entry partner): as the sequence (P27986 whole entry partner) above

For `CCOc1c([C@@H](C)c2nc(Cl)c3c(N)nccn23)cc(Cl)c(F)c1-c1ccc(C(F)(F)F)nc1OC` [Compound 43B], the IC50 in test [1] was > 1000 nM.
With `CC(C)Oc1c([C@@H](C)c2nc(Cl)c3c(N)nccn23)cc(Cl)c(F)c1-c1ccc(C(=O)N(C)C)nc1` [Compound 16B], the IC50 in test [1] was 62 nM.
For `Cc1nc(C(C)c2cc(Cl)c(F)c(-c3ccc(C#N)nc3)c2OC(C)C)n2ccnc(N)c12` (single isomer, unassigned) [Compound 59B, 5-(3-(1-(8-amino-1-methylimidazo[1,5-a]pyrazin-3-yl)ethyl)-5-chloro-6-fluoro-2-isopropoxyphenyl)picolinonitrile], in test [1], the IC50 was 240 nM.
Still for that read-out and setting: to `CCOc1c(C(C)c2nc(Cl)c3c(N)nccn23)cc(Cl)c(C)c1N1CCOCC1` (single isomer, unassigned) [Compound 51B, 1-chloro-3-(1-(5-chloro-2-ethoxy-4-methyl-3-morpholinophenyl)ethyl)imidazo[1,5-a]pyrazin-8-amine] belongs 320 nM; to `Cc1nn(C(C)c2cc(Cl)c(C#N)c(=O)n2-c2ccccc2)c2ncnc(N)c12` (stereo not shown) [Compound 55, 6-(1-(4-amino-3-methyl-1H-pyrazolo[3,4-d]pyrimidin-1-yl)ethyl)-4-chloro-2-oxo-1-phenyl-1,2-dihydropyridine-3-carbonitrile], 450 nM.
`COc1c(C(C)c2nc(Br)c3c(N)nccn23)cc(Cl)c(C)c1-c1c(C)noc1C` (stereo not shown) [Compound 21, 1-bromo-3-(1-(5-chloro-3-(3,5-dimethylisoxazol-4-yl)-2-methoxy-4-methylphenyl)ethyl)imidazo[1,5-a]pyrazin-8-amine]: the results for the IC50 (in test [1]; on PI3K (p110γ); in test [2]) were 3.3 nM, 1500 nM and 2000 nM, respectively.
`COc1c(C(C)c2ncc3c(N)nccn23)cc(Cl)c(C)c1-c1cccnc1` (stereo not shown) [Compound 1, 3-(1-(5-chloro-2-methoxy-4-methyl-3-(pyridin-3-yl)phenyl)ethyl)imidazo[1,5-a]pyrazine-8-amine]: in test [1], the IC50 is 150 nM. Further, the inhibition at 0.5 µM was -27% at PI3K (p110γ) and 6% on PI3K (p110β/p85α).
As for `COc1c(C(C)c2nc(Cl)c3c(N)nccn23)cc(Cl)c(C)c1-c1cccnc1` (stereo not shown) [Compound 6, 1-chloro-3-(1-(5-chloro-2-methoxy-4-methyl-3-(pyridin-3-yl)phenyl)ethyl)imidazo[1,5-a]pyrazin-8-amine], in test [1], the IC50 amounted to 2 nM. The inhibition at 0.5 µM on PI3K (p110γ) is 52%; in test [2], 34%.
Consider `Cc1c(Cl)cc([C@@H](C)c2nc(Br)c3c(N)nccn23)c(OC(C)C)c1-c1ccc(C(F)(F)F)nc1` [Compound 38B], for which the IC50 in test [1] came to 2100 nM.
Consider `CCOc1c([C@@H](C)c2nc(Cl)c3c(N)nccn23)cc(Cl)c(C)c1-c1ccc(Cl)nc1` [Compound 27B], for which the IC50 in test [1] was 500 nM.
Turning to `CCOc1c(C(C)c2nc(Cl)c3c(N)nccn23)cc(Cl)c(F)c1C1CCOCC1` (stereo not shown) [Compound 49, 1-chloro-3-(1-(5-chloro-2-ethoxy-4-fluoro-3-(tetrahydro-2H-pyran-4-yl)phenyl)ethyl)imidazo[1,5-a]pyrazin-8-anine], the IC50 in test [1] came out at 3.1 nM.
On to `CCOc1c(C(C)c2nc(Br)c3c(N)nccn23)cc(Cl)c(C)c1-c1ccc(C)nc1` (stereo not shown) [Compound 7, 1-bromo-3-(1-(5-chloro-2-ethoxy-4-methyl-3-(6-methylpyridin-3-yl)phenyl)ethyl) imidazo[1,5-a]pyrazin-8-amine], for which the IC50 in test [1] is 1.9 nM; at PI3K (p110γ) it was 200 nM; in test [2], 420 nM.
For `CC(C)Oc1c([C@@H](C)c2nc(Cl)c3c(N)nccn23)cc(Cl)c(F)c1-c1ccc(C(F)(F)F)nc1` [Compound 40B], the IC50 in test [1] is 150 nM.
Take `CCOc1c(C(C)c2nc(C)c3c(N)nccn23)cc(F)c(Cl)c1-c1ccc(C(F)(F)F)nc1` (stereo not shown) [Compound 34, 3-(1-(4-chloro-2-ethoxy-5-fluoro-3-(6-(trifluoromethyl)pyridin-3-yl)phenyl)ethyl)-1-methylimidazo[1,5-a]pyrazin-8-amine]: the IC50 in test [1] was 43 nM.
The same measure, in the same setting: under `COc1c(C(C)c2nc(-c3ccccc3)c3c(N)nccn23)cc(Cl)c(C)c1-c1cccnc1` (stereo not shown) [Compound 3, 3-(1-(5-chloro-2-methoxy-4-methyl-3-(pyridin-3-yl)phenyl)ethyl)-1-phenylimidazo[1,5-a]pyrazin-8-amine] stands 150 nM; under `CC(C)Oc1c([C@@H](C)c2nc(Cl)c3c(N)nccn23)cc(Cl)c(F)c1-c1ccc(C(N)=O)nc1` [Compound 17A], 91 nM.
In the case of `COc1c(C(C)c2nc(Br)c3c(N)nccn23)cc(Cl)c(C)c1-c1cccnc1` (stereo not shown) [Compound 2, 1-bromo-3-(1-(5-chloro-2-methoxy-4-methyl-3-(pyridin-3-yl)phenyl)ethyl)imidazo[1,5-a]pyrazin-8-amine], the results for the 50% inhibitory concentration (IC50) in test [1] and in test [2] were 1.5 nM and 560 nM, respectively. The inhibition at 0.5 µM at PI3K (p110γ) was determined as 37%.
For the compound `CC(C)Oc1c(C(C)c2nc(Cl)c3c(N)nccn23)cc(Cl)c(F)c1-c1ccc(C(=O)O)nc1` (single isomer, unassigned) [Compound 18B], the IC50 in test [1] amounted to 26 nM.
In the case of `CC(C)Oc1c(C(C)c2nc(Cl)c3c(N)nccn23)cc(Cl)c(F)c1C1CNC(=O)C1` (single isomer, unassigned) [Compound 48C, 4-(3-(1-(8-amino-1-chloroimidazo[1,5-a]pyrazin-3-yl)ethyl)-5-chloro-6-fluoro-2-isopropoxyphenyl)pyrrolidin-2-one], in test [1], the IC50 turned out to be 160 nM.
Take `CCOc1c([C@@H](C)c2nc(Cl)c3c(N)nccn23)cc(Cl)c(F)c1-c1ccc(C(F)(F)F)nc1` [Compound 41B]: in test [1], the IC50 stood at 350 nM.
The same measure, in the same setting: to `CC(C)Oc1c(C(C)c2nc(Cl)c3c(N)nccn23)cc(Cl)c(F)c1C1CNC(=O)C1` (single isomer, unassigned) [Compound 48D, 4-(3-(1-(8-amino-1-chloroimidazo[1,5-a]pyrazin-3-yl)ethyl)-5-chloro-6-fluoro-2-isopropoxyphenyl)pyrrolidin-2-one] belongs 6.8 nM.
As for `CCOc1c(C(C)c2nc(-c3ccc(OC)cc3)c3c(N)nccn23)cc(Cl)c(C)c1-c1ccc(OC)cc1` (stereo not shown) [Compound 44, 3-(1-(5-chloro-2-ethoxy-4′-methoxy-6-methyl-[151′-biphenyl]-3-yl)ethyl)-1-(4-methoxyphenyl)imidazo[1,5-a]pyrazin-8-amine], in test [1], the half-inhibitory concentration (IC50) turned out to be 380 nM.
On to `CCOc1c(C(C)c2nc(Br)c3c(N)nccn23)cc(Cl)c(C)c1-c1ccc(Cl)cc1` (stereo not shown) [Compound 9, 1-bromo-3-(1-(4′,5-dichloro-2-ethoxy-6-methyl-[1,1′-biphenyl]-3-yl)ethyl)imidazo[1,5-a]pyrazin-8-amine], for which the IC50 in test [1] turned out to be 100 nM.
For the compound `COc1c(C(C)c2nc(Br)c3c(N)ncc(Cl)n23)cc(Cl)c(C)c1-c1cccnc1` (stereo not shown) [Compound 5, 1-bromo-5-chloro-3-(1-(5-chloro-2-methoxy-4-methyl-3-(pyridin-3-yl)phenyl)ethyl) imidazo[1,5-a]pyrazin-8-amine], the IC50 in test [1] was 18 nM. Moreover, the inhibition at 0.5 µM worked out at 44% on PI3K (p110γ) and 19% in test [2].
On to `CCOc1c(C(C)c2nc(Cl)c3c(N)nccn23)cc(Cl)c(F)c1C1CCOCC1` (single isomer, unassigned) [Compound 49B, 1-chloro-3-(1-(5-chloro-2-ethoxy-4-fluoro-3-(tetrahydro-2H-pyran-4-yl)phenyl)ethyl)imidazo[1,5-a]pyrazin-8-amine], for which the IC50 in test [1] turned out to be 26 nM.
Turning to `CCCOc1c([C@@H](C)c2nc(Cl)c3c(N)nccn23)cc(Cl)c(F)c1-c1ccc(C(F)(F)F)nc1` [Compound 42B], in test [1], the IC50 was 330 nM.
Consider `COc1c(C(C)c2nc(-c3cccc(O)c3)c3c(N)nccn23)cc(Cl)c(C)c1-c1cccnc1` (stereo not shown) [Compound 4, 3-(8-amino-3-(1-(5-chloro-2-methoxy-4-methyl-3-(pyridin-3-yl)phenyl)ethyl)imidazo[1,5-a]pyrazin-1-yl)phenol], for which the IC50 in test [1] was 7.5 nM. The inhibition at 0.5 µM on PI3K (p110γ) came out at 9%; in test [2], 20%.
As for `COc1c(C(C)c2nc(C)c3c(N)nccn23)cc(Cl)c(C)c1-c1cccnc1` (stereo not shown) [Compound 52, 3-(1-(5-chloro-2-methoxy-4-methyl-3-(pyridin-3-yl)phenyl)ethyl)-1-methyl imidazo[1,5-a]pyrazin-8-amine], the IC50 in test [1] turned out to be 7.7 nM. Besides, the values for the inhibition at 0.5 µM (on PI3K (p110γ); in test [2]) were -11% and 6%, respectively.
With `COc1c(C(C)c2nc(C3CC3)c3c(N)nccn23)cc(Cl)c(C)c1-c1cccnc1` (stereo not shown) [Compound 53, 3-(1(5-chloro-2-methoxy-4-methyl-3-(pyridin-3-yl)phenyl)ethyl)-1-cyclopropyl imidazo[1,5-a]pyrazin-8-amine], the IC50 in test [1] amounted to 1900 nM.
Still for that read-out and setting: under `CCOc1c([C@@H](C)c2nc(Cl)c3c(N)nccn23)cc(Cl)c(C)c1-c1ccc(C)nc1` [Compound 8B] stands 170 nM.
